Legend:
Assay type in all cases: cell-based
[1] = tested on: Leishmania donovani axenic amastigote; assay: In vitro assay for growth inhibition of Leishmania donovani axenic amastigote (Cell TiterGlo luminescence); settings: Leishmania donovani, L. donovani axenic amastigotes in vitro; read-out: L. donovani amastigotes EC50
How it was run: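 Axenic L. donovani amastigotes (9600/well) grown at 37 °C, 5% CO2 in supplemented RPMI 1640, pH 5.5, with compound added from DMSO. After two days, viability read by CellTiter-Glo luminescence against DMSO and control-compound wells.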

[2] = tested on: L. donovani HU3 strain in mouse peritoneal macrophages; assay: Assay for inhibition of parasitemia of Leishmania donovani in mouse macrophages (SYBR Green nuclei count, high-content imaging); settings: Leishmania donovani, Peritoneal macrophage, L. donovani in mouse peritoneal macrophages; read-out: L. donovani in Mouse Macrophages EC50
How it was run: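 Peritoneal macrophages from uninfected BALB/c mice were infected for 24 h with spleen-derived L. donovani HU3 (4×10^5 parasites per 2×10^4 macrophages), then cultured with compound for 5 days at 37° C, 5% CO2. After fixation and permeabilization, parasite nuclei were stained with SYBR Green and counted by high-content imaging.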

[3] = tested on: Trypanosoma cruzi amastigotes cultured in 3T3 fibroblast cells; assay: Assay for growth inhibition of kinetoplastid parasite Trypanosoma cruzi (beta-galactosidase Tulahuen strain, CPRG readout); settings: Trypanosoma cruzi, Fibroblast, T. cruzi amastigotes in 3T3 fibroblast cells; read-out: Buckner infectious T. cruzi EC50
How it was run: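 3T3 fibroblasts (1,000 cells/well) plated overnight, treated with compound in DMSO, then infected with 10,000 Lac-Z-expressing Tulahuen trypomastigotes. After 6 days, 0.6 mM CPRG with 0.6% NP-40 added for 2 h at room temperature; absorbance gives relative intracellular amastigote numbers. Benznidazole and nifurtimox serve as positive controls.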

[4] = tested on: Trypanosoma brucei brucei (Lister 427) strain; assay: Assay for growth inhibition against Trypanosoma brucei brucei (Cell TiterGlo ATP luminescence); settings: Trypanosoma brucei, T. brucei brucei (Lister 427); read-out: T. Brucei (HAT) EC50
How it was run: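 T. b. brucei Lister 427 grown in HMI-9 with 10% FBS and 10% serum plus, seeded at 10,000 parasites/mL with 10-point threefold compound dilutions in duplicate, 37 °C for 2 days. Viability read as ATP luminescence 30 min after Cell TiterGlo; IC50 versus untreated controls.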

Compound	EC50 [1]	EC50 [2]	EC50 [3]	EC50 [4]
O=C(Nc1ccc(F)c(-n2cc3cc(-c4ccccn4)cnc3n2)c1)c1ccco1 [Compound 64, N-{4-fluoro-3-[5-(pyridin-2-yl)-2H-pyrazolo[3,4-b]pyridin-2-yl]phenyl}furan-2-carboxamide]	2.2 nM	3.9 nM	1 nM	< 23 nM
O=C1CCC2(CN(c3cnc4nn(-c5cc(NC(=O)N6CC(F)C6)ccc5F)cc4c3)C2)N1 [Compound 245, 3-fluoro-N-[4-fluoro-3-(5-{6-oxo-2,5-diazaspiro[3.4]octan-2-yl}-2H-pyrazolo[3,4-b]pyridin-2-yl)phenyl}azetidine-1-carboxamide]	311 nM	1490 nM	951 nM	62 nM
O=C(Nc1ccc(F)c(-n2cc3cc(CC(F)(F)F)cnc3n2)c1)N1CC(F)(F)C1 [Compound 166, 3,3-difluoro-N-{4-fluoro-3-[5-(2,2,2-trifluoroethyl)-2H-pyrazolo[3,4-b]pyridin-2-yl]phenyl}azetidine-1-carboxamide]	2.5 nM	3.7 nM	1.7 nM	< 23 nM
CC(C)c1cnc2nn(-c3cc(NC(=O)N4CC[C@@H](F)C4)ccc3F)cc2c1 [Compound 195, (3R)-3-fluoro-N-{4-fluoro-3-[5-(propan-2-yl)-2H-pyrazolo[3,4-b]pyridin-2-yl]phenyl}pyrrolidine-1-carboxamide]	10 nM	6.4 nM	4 nM	< 23 nM
O=C(Nc1ccc(Cl)c(-n2cc3cc(-c4ccccn4)cnc3n2)c1)N1CCC1 [Compound 285, N-{4-chloro-3-[5-(pyridin-2-yl)-2H-pyrazolo[3,4-b]pyridin-2-yl]phenyl}azetidine-1-carboxamide]	4 nM	9 nM	3 nM	4 nM
O=C(Nc1ccc(F)c(-n2cc3cc(N4CC5CC(C4)O5)cnc3n2)c1)N1CC(F)C1 [Compound 240, 3-fluoro-N-[4-fluoro-3-(5-{6-oxa-3-azabicyclo[3.1.1]heptan-3-yl}-2H-pyrazolo[3,4-b]pyridin-2-yl)phenyl}azetidine-1-carboxamide]	579 nM	27 nM	21 nM	5 nM
CC(C)c1cnc2nn(-c3cc(NC(=O)CCC(F)(F)F)ccc3F)cc2c1 [Compound 173, 4,4,4-trifluoro-N-(4-fluoro-3-(5-isopropyl-2H-pyrazolo[3,4-b]pyridin-2-yl)phenyl)butanamide]	410 nM	500 nM	140 nM	120 nM
O=C(Nc1ccc(F)c(-n2cc3cc(CC(F)(F)F)cnc3n2)c1)N1CC[C@@H](F)C1 [Compound 162, (3R)-3-fluoro-N-{4-fluoro-3-[5-(2,2,2-trifluoroethyl)-2H-pyrazolo[3,4-b]pyridin-2-yl]phenyl}pyrrolidine-1-carboxamide]	7 nM	4.5 nM	1.8 nM	< 23 nM
O=C(Nc1ccc(F)c(-n2cc3cc(N4CC(F)(F)C4)cnc3n2)c1)[C@H]1C[C@@H]1F (single isomer, unassigned) [Compound 339]	1590 nM	310 nM	112 nM	163 nM
O=C(Nc1ccc(F)c(-n2cc3cc(-c4cnccn4)cnc3n2)c1)N1CC(F)C1 [Compound 294, 3-fluoro-N-{4-fluoro-3-[5-(pyrazin-2-yl)-2H-pyrazolo[3,4-b]pyridin-2-yl]phenyl}azetidine-1-carboxamide]	4 nM	4 nM	5 nM	5 nM
O=C(Nc1ccc(Cl)c(-n2cc3cc(-c4ccccn4)cnc3n2)c1)N1CC(F)C1 [Compound 283, N-{4-chloro-3-[5-(pyridin-2-yl)-2H-pyrazolo[3,4-b]pyridin-2-yl]phenyl}-3-fluoroazetidine-1-carboxamide]	7 nM	19 nM	5 nM	8 nM
CC(C)(C)Cc1cnc2nn(-c3cc(NC(=O)N4CC(F)C4)ccc3F)cc2c1 [Compound 21, N-{3-[5-(2,2-dimethylpropyl)-2H-pyrazolo[3,4-b]pyridin-2-yl]-4-fluorophenyl}-3-fluoroazetidine-1-carboxamide]	7.7 nM	6.5 nM	1.7 nM	< 23 nM
CC(C)OC(=O)Nc1cnc2nn(-c3cc(NC(=O)N4CC(F)(F)C4)ccc3F)cc2c1 [Compound 146, propan-2-yl N-(2-{5-[(3,3-difluoroazetidine-1-carbonyl)amino]-2-fluorophenyl}-2H-pyrazolo[3,4-b]pyridin-5-yl)carbamate]	26 nM	12 nM	85 nM	< 23 nM
CC(C)OC(=O)Nc1cnc2nn(-c3cc(NC(=O)c4ccco4)ccc3F)cc2c1 [Compound 123, propan-2-yl N-{2-[2-fluoro-5-(furan-2-amido)phenyl}-2H-pyrazolo[3,4-b]pyridin-5-yl}carbamate]	9.4 nM	8.9 nM	4.4 nM	< 23 nM
O=C(Nc1ccc(F)c(-n2cc3cc(-c4cnn(C5CC5)c4)cnc3n2)c1)N1CC(F)C1 [Compound 325, N-{3-[5-(1-cyclopropyl-1H-pyrazol-4-yl)-2H-pyrazolo[3,4-b]pyridin-2-yl]-4-fluorophenyl}-3-fluoroazetidine-1-carboxamide]	8 nM	50 nM	36 nM	11 nM
Cc1ncoc1C(=O)Nc1ccc(F)c(-n2cc3cc(C(C)C)cnc3n2)c1 [Compound 73, N-{4-fluoro-3-[5-(propan-2-yl)-2H-pyrazolo[3,4-b]pyridin-2-yl]phenyl}-4-methyl-1,3-oxazole-5-carboxamide]	100 nM	220 nM	57 nM	37 nM
O=C(Nc1ccc(F)c(-n2cc3cc(C4CCC4)cnc3n2)c1)N1CCC1 [Compound 93, N-(3-{5-cyclobutyl-2H-pyrazolo[3,4-b]pyridin-2-yl}-4-fluorophenyl)azetidine-1-carboxamide]	34 nM	32 nM	7 nM	< 23 nM
O=C(Nc1ccc(F)c(-n2cc3cc(N4CC5(CC5)C4)cnc3n2)c1)[C@H]1C[C@@H]1F (racemic) [Compound 272, (1R,2S)-N-[3-(5-{5-azaspiro[2.3]hexan-5-yl}-2H-pyrazolo[3,4-b]pyridin-2-yl]-4-fluorophenyl}-2-fluorocyclopropane-1-carboxamide]	131 nM	85 nM	114 nM	351 nM
O=C(Nc1ccc(F)c(-n2cc3cc(N4CC5(CCOC5)C4)cnc3n2)c1)N1CC2(CCOC2)C1 [Compound 246, N-[4-fluoro-3-(5-{6-oxa-2-azaspiro[3.4]octan-2-yl}-2H-pyrazolo[3,4-b]pyridin-2-yl)phenyl}-6-oxa-2-azaspiro[3.4]octane-2-carboxamide]	535 nM	379 nM	2840 nM	396 nM
O=C(Nc1ccc(F)c(-n2cc3cc(N4CC(C(F)(F)F)C4)cnc3n2)c1)N1CC(F)C1 [Compound 265, 3-fluoro-N-(4-fluoro-3-(5-(3-(trifluoromethyl)azetidin-1-yl)-2H-pyrazolo[3,4-b]pyridin-2-yl)phenyl)azetidine-1-carboxamide]	3 nM	4 nM	2 nM	1 nM
O=C(Nc1ccc(F)c(-n2cc3cc(N4CCCC4)cnc3n2)c1)N1CC(F)(F)C1 [Compound 161, 3,3-difluoro-N-{4-fluoro-3-[5-(pyrrolidin-1-yl)-2H-pyrazolo[3,4-b]pyridin-2-yl]phenyl}azetidine-1-carboxamide]	7.7 nM	7.3 nM	9.8 nM	< 23 nM
O=C(Nc1ccc(F)c(-n2cc3cc(N4CCOCC4)cnc3n2)c1)N1CC[C@@H](F)C1 [Compound 135, (3R)-3-fluoro-N-{4-fluoro-3-[5-(morpholin-4-yl)-2H-pyrazolo[3,4-b]pyridin-2-yl]phenyl}pyrrolidine-1-carboxamide]	4.6 nM	8.6 nM	6.6 nM	< 23 nM
Cn1cnc(-c2cnc3nn(-c4cc(NC(=O)N5CC(F)C5)ccc4F)cc3c2)c1 [Compound 301, 3-fluoro-N-{4-fluoro-3-[5-(1-methyl-1H-imidazol-4-yl)-2H-pyrazolo[3,4-b]pyridin-2-yl]phenyl}azetidine-1-carboxamide]	73 nM	97 nM	472 nM	8 nM
O=C(Nc1ccc(F)c(-n2cc3cc(N4CC(F)C4)cnc3n2)c1)N1CC(F)(F)C1 [Compound 303, 3,3-difluoro-N-{4-fluoro-3-[5-(3-fluoroazetidin-1-yl)-2H-pyrazolo[3,4-b]pyridin-2-yl]phenyl}azetidine-1-carboxamide]	490 nM	15 nM	10 nM	5 nM

Source: patent US11384078B2, “5,6-fused-bicyclic compounds and compositions for the treatment of parasitic diseases” (NOVARTIS AG, priority 2017, dated 2022)
